Key:
GPR158 [1] = target: T1, GPR158 (Homo sapiens, UniProt Q5T848); test: BRET cAMP assay in U87 glioblastoma cells expressing GPR158; assay type: cell-based; set-up: expressed in transfected cells; host or cells: HEK293FT; conditions: glycine 100 μM
T1 sequence (Q5T848 24-1215): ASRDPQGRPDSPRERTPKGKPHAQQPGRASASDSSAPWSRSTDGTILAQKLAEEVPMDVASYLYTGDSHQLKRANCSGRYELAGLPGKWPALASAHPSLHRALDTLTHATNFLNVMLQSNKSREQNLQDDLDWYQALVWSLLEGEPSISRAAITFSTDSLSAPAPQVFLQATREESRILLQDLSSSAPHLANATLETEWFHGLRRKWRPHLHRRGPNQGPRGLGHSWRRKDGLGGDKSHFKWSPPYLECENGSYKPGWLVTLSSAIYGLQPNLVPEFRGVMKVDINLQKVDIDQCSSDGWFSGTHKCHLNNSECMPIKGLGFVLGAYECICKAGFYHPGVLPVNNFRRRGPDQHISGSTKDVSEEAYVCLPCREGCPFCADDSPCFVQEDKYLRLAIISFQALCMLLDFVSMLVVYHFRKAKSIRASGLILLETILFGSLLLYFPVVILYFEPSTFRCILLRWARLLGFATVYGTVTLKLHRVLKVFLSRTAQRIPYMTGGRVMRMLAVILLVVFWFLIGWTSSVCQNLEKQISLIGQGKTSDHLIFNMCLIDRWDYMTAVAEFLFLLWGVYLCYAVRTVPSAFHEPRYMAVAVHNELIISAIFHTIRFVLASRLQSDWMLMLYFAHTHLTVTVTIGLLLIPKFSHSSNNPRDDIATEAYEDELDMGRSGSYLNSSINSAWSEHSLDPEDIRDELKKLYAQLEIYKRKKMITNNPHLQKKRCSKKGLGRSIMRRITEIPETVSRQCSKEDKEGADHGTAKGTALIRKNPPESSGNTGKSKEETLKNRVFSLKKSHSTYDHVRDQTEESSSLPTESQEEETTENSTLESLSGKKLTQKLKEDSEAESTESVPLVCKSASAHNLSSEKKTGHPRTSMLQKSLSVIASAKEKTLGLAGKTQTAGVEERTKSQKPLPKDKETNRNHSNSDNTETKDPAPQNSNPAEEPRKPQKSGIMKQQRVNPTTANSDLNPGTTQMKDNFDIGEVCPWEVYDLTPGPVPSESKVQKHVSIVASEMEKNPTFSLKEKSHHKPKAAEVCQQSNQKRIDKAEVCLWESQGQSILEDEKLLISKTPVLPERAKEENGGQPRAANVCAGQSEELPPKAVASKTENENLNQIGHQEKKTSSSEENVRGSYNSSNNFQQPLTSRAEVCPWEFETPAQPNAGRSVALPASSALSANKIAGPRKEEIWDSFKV
Description: FIGS. 1A-1E Identification of glycine as GPR158 ligand. A) 3D model of the GPR158 cache domain with putative ligand-binding pocket is shown as surface presentation with cartoon representation at the background. B) Schematic of the screening assay design. C) Quantification of cAMP changes mediated by GPR158. BRET signal in response to amino acid application detected in control cells is subtracted from the signal from cells expressing GPR158 and the difference is plotted. Dotted lines denote 2×SD confidence interval. Data shown represent mean±s.e.m. determined from 3 independent experiments performed in triplicate. D) Time course of cAMP change induced with 10 μM of forskolin in glioblastoma cells (U87 MG) in response to glycine (100 μM) application (arrow) in empty cells (control) or cells expressing indicated components. E) Quantification of maximal amplitudes of responses to glycine in panel d. Data shown represent mean±s.e.m. determined from 3 independent experiments performed in triplicate. **p<0.01 (one-way ANOVA).
To study this effect in more detail the inventors analyzed the individual responses to glycine in a kinetic mode.
HEK293FT cells were seeded in a white flat-bottom 96 well plate (Greiner Bio-One) at 50,000 cells per well and transiently transfected using Metafectene Pro with the manufacturer instruction. […] BRET measurements were made in living cells using a microplate reader (PHERAstar FSX; BMG Labtech) equipped with two emission photomultiplier tubes. […]
HEK293FT cells or U87 MG cells (ATCC HTB-14) when indicated were co-transfected with the CAMP sensor Camyel and with untagged receptors (respectively: empty vector, GPR158). BRET ratio was determined by calculating the ratio of the light emitted by RLuc (475 nm with a 30 nm band path width) over the light emitted by the Venus (535 nm with a 30 nm band path width) in order to measure an increase of the signal when cAMP increase. ΔBRET was calculated by subtracting the ctrl cell BRET result from GPR158 expressing cells BRET result in order to get specifically the signal from GPR158 removing all the non-specific signal. […]

GPR158 [2] = target: T1, GPR158; test: BRET β-arrestin recruitment assay; assay type: cell-based; set-up: expressed in transfected cells; host or cells: HEK293 (HEK293FT in the BRET methods); conditions: yPET-β-arrestin-2, HEK293 cells
Description: FIGS. 6A-6B. Effect of glycine on GPR158 coupling to β-arrestin. A) Schematic of the BRET based β-arrestin recruitment assay B) Dose response profile evaluating recruitment of β-arrestin using BRET-based recruitment assay that measures association of yPET-β-arrestin-2 with Rluc8-tagged receptor: GPR158 or kOR used as a positive control. Constructs were co-transfected into HEK293 cells stimulated with increasing concentration of U50488 or glycine. Data shown fold over basal of 4 independent experiments performed in triplicate mean±s.e.m.
The inventors further tested whether glycine or taurine could induce GPR158 to activate G proteins as canonical GPCRs do. In these experiments, the inventors used a reverse strategy where the inventors monitored generation of the BRET signal in the same assay (FIG. 5A).
Cells were co-transfected with Rluc-tagged receptors and YPet-β-arrestin2. Coelenterazine H were diluted at 5 μM in BRET buffer and added to cells with glycine or U50488 as indicated. BRET ratio was determined by calculating the ratio of the light emitted by the Venus (535 nm with a 30 nm band path width) over the light emitted by RLuc (475 nm with a 30 nm band path width) in order to measure an increase of the signal when β-arrestin is recruited. BRET ratio was calculated and fold over basal response was plotted as a function of kOR condition.

cAMP change in cells lacking GPR158 (GPR158 [1]; U87 cells without GPR158): No glycine-induced changes in cAMP
cAMP change with co-expressed RGS7/Gβ5 (GPR158 [1]; U87 cells, GPR158 + RGS7/Gβ5): further potentiated
cAMP change (GPR158 [1]; U87 glioblastoma cells expressing GPR158, forskolin 10 μM): resulted in cAMP decrease
β-arrestin recruitment to GPR158 (GPR158 [2]): no significant response
SMILES: NCC(=O)O [glycine]

— US20260376293A1, “METHODS FOR STUDYING GPR158 PHARMACOLOGY AND IDENTIFICATION OF ITS LIGANDS” (UNIVERSITY OF FLORIDA RESEARCH FOUNDATION, INCORPORATED, priority 2022, published 2026)
